# Laboratory results from patent publication US20260285850A1, “SUBSTITUTED OXAZOLIDINONES AND IMIDAZOLINONES AS HERBICIDES” (FMC CORPORATION, priority 2023, published 2026).
# Experiments:
# Format in all cases: in vivo
# [1] = tested on: kochia (Bassia scoparia); assay: Test A postemergence application, visual injury rating 0-100; details: 10 days
# Procedure, shortened: (§1)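 Rating: visual, day 10, untreated plants as reference, 0 no effect to 100 full control. Plants were in loam-sand and were treated either preemergence via directed soil spray or postemergence at the one- to two-leaf stage.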
# [2] = tested on: ryegrass, Italian (italian ryegrass, Lolium multiflorum); assay: as above; details: 10 days
# Procedure, shortened: as §1
# [3] = tested on: galium (catchweed bedstraw, Galium aparine); assay: as above; details: 10 days
# Procedure, shortened: as §1
# [4] = tested on: horseweed (Erigeron canadensis); assay: as above; details: 10 days
# Procedure, shortened: as §1
# [5] = tested on: ragweed (common ragweed, Ambrosia artemisiifolia); assay: as above; details: 10 days
# Procedure, shortened: as §1
# [6] = tested on: wheat (Triticum aestivum); assay: as above; details: 10 days
# Procedure, shortened: as §1
# [7] = tested on: palmer (palmer amaranth, palmer pigweed, Amaranthus palmeri); assay: as above; details: 10 days
# Procedure, shortened: as §1
# [8] = tested on: blackgrass (Alopecurus myosuroides); assay: as above; details: 10 days
# Procedure, shortened: as §1
# [9] = tested on: soybean (Glycine max); assay: as above; details: 10 days
# Procedure, shortened: as §1
# [10] = tested on: barnyardgrass (Echinochloa crus-galli); assay: as above; details: 10 days
# Procedure, shortened: as §1
# [11] = tested on: green foxtail (Setaria viridis); assay: as above; details: 10 days
# Procedure, shortened: as §1
# [12] = tested on: corn (Zea mays); assay: as above; details: 10 days
# Procedure, shortened: as §1
# [13] = tested on: oat, wild (wild oat, Avena fatua); assay: as above; details: 10 days
# Procedure, shortened: as §1
# [14] = tested on: rice (Oryza sativa); assay: Test B flooded paddy test, visual plant response rating 0-100; details: 250 g ai/ha, Flood, applied to paddy water, evaluated after 13 days
# Procedure, shortened: (§2)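 2-leaf plants; flood 3 cm over soil; compound dosed into paddy water; depth kept constant; greenhouse 13 d; visual scoring vs controls. Dash = no result.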
# [15] = tested on: barnyardgrass (Echinochloa crusgalli); assay: as above; details: 250 g ai/ha, Flood, applied to paddy water, evaluated after 13 days
# Procedure, shortened: as §2
# [16] = tested on: ducksalad (Heteranthera limosa); assay: as above; details: 250 g ai/ha, Flood, applied to paddy water, evaluated after 13 days
# Procedure, shortened: as §2
# [17] = tested on: sedge, umbrella (small-flower umbrella sedge, Cyperus difformis); assay: as above; details: 250 g ai/ha, Flood, applied to paddy water, evaluated after 13 days
# Procedure, shortened: as §2
# [18] = tested on: kochia (Bassia scoparia); assay: Test A preemergence soil spray, visual injury rating 0-100; details: 10 days, 0 = no effect, 100 = complete control
# Procedure, shortened: as §1
# [19] = tested on: ryegrass, Italian (italian ryegrass, Lolium multiflorum); assay: as above; details: 10 days, 0 = no effect, 100 = complete control
# Procedure, shortened: as §1
# [20] = tested on: ragweed (common ragweed, Ambrosia artemisiifolia); assay: as above; details: 10 days, 0 = no effect, 100 = complete control
# Procedure, shortened: as §1
# [21] = tested on: wheat (Triticum aestivum); assay: as above; details: 10 days, 0 = no effect, 100 = complete control
# Procedure, shortened: as §1
# [22] = tested on: palmer (palmer amaranth, palmer pigweed, Amaranthus palmeri); assay: as above; details: 10 days, 0 = no effect, 100 = complete control
# Procedure, shortened: as §1
# [23] = tested on: blackgrass (Alopecurus myosuroides); assay: as above; details: 10 days, 0 = no effect, 100 = complete control
# Procedure, shortened: as §1
# [24] = tested on: soybean (Glycine max); assay: as above; details: 10 days, 0 = no effect, 100 = complete control
# Procedure, shortened: as §1
# [25] = tested on: barnyardgrass (Echinochloa crus-galli); assay: as above; details: 10 days, 0 = no effect, 100 = complete control
# Procedure, shortened: as §1
# [26] = tested on: green foxtail (Setaria viridis); assay: as above; details: 10 days, 0 = no effect, 100 = complete control
# Procedure, shortened: as §1
# [27] = tested on: corn (Zea mays); assay: as above; details: 10 days, 0 = no effect, 100 = complete control
# Procedure, shortened: as §1
# [28] = tested on: oat, wild (wild oat, Avena fatua); assay: as above; details: 10 days, 0 = no effect, 100 = complete control
# Procedure, shortened: as §1
# [29] = 31 g ai/ha, postemergence, 0 = no effect, 100 = complete control
# [30] = Postemergence, 125 g ai/ha, 0 is no effect, 100 is complete control
smiles,measurement,setting,value
CC1(C(=O)NC2C=CC(C(=O)OC3CCCC3)C2)CN(c2cc(F)cc(F)c2)C(=O)O1 (stereo not shown) [Compound 57],Kochia plant response rating (0-100),[1]; [29],80
same,Kochia plant response rating (0 to 100 scale),[1]; [30],80
same,"Ryegrass, Italian plant response rating (0-100)",[2]; [29],90
same,"Ryegrass, Italian plant response rating (0 to 100 scale)",[2]; [30],90
same,Galium plant response rating (0-100),[3]; [29],80
same,Galium plant response rating (0 to 100 scale),[3]; [30],80
same,Horseweed plant response rating (0-100),[4]; [29],0
same,Horseweed plant response rating (0 to 100 scale),[4]; [30],60
same,Ragweed plant response rating (0-100),[5]; [29],40
same,Ragweed plant response rating (0 to 100 scale),[5]; [30],60
same,Wheat plant response rating (0-100),[6]; [29],90
same,Wheat plant response rating (0 to 100 scale),[6]; [30],90
same,"Amaranth, Palmer plant response rating (0-100)",[7]; [29],20
same,"Amaranth, Palmer / Pigweed, Palmer plant response rating (0 to 100 scale)",[7]; [30],70
same,Blackgrass plant response rating (0-100),[8]; [29],90
same,Blackgrass plant response rating (0 to 100 scale),[8]; [30],90
same,Soybean plant response rating (0-100),[9]; [29],60
same,Soybean plant response rating (0 to 100 scale),[9]; [30],70
same,Barnyardgrass plant response rating (0-100),[10]; [29],100
same,Barnyardgrass plant response rating (0 to 100 scale),[10]; [30],100
same,"Foxtail, Green plant response rating (0-100)",[11]; [29],30
same,"Foxtail, Green plant response rating (0 to 100 scale)",[11]; [30],90
same,Corn plant response rating (0-100),[12]; [29],90
same,Corn plant response rating (0 to 100 scale),[12]; [30],100
same,"Oat, Wild plant response rating (0-100)",[13]; [29],90
same,"Oat, Wild plant response rating (0 to 100 scale)",[13]; [30],90
same,"Plant response rating, Rice (0 to 100 scale, 0 is no effect and 100 is complete control)",[14],20
same,"Plant response rating, Barnyardgrass (0 to 100 scale, 0 is no effect and 100 is complete control)",[15],90
same,"Plant response rating, Ducksalad (0 to 100 scale, 0 is no effect and 100 is complete control)",[16],100
same,"Plant response rating, Sedge, Umbrella (0 to 100 scale, 0 is no effect and 100 is complete control)",[17],55
same,Kochia plant response rating (0-100),[18]; 31 g ai/ha,0
same,Kochia plant response rating (0 to 100 scale),[18]; 125 g ai/ha,90
same,"Ryegrass, Italian plant response rating (0-100)",[19]; 31 g ai/ha,50
same,"Ryegrass, Italian plant response rating (0 to 100 scale)",[19]; 125 g ai/ha,100
same,Ragweed plant response rating (0-100),[20]; 31 g ai/ha,0
same,Ragweed plant response rating (0 to 100 scale),[20]; 125 g ai/ha,0
same,Wheat plant response rating (0-100),[21]; 31 g ai/ha,90
same,Wheat plant response rating (0 to 100 scale),[21]; 125 g ai/ha,100
same,"Amaranth, Palmer plant response rating (0-100)",[22]; 31 g ai/ha,10
same,"Amaranth, Palmer plant response rating (0 to 100 scale)",[22]; 125 g ai/ha,70
same,Blackgrass plant response rating (0-100),[23]; 31 g ai/ha,70
same,Blackgrass plant response rating (0 to 100 scale),[23]; 125 g ai/ha,90
same,Soybean plant response rating (0-100),[24]; 31 g ai/ha,50
same,Soybean plant response rating (0 to 100 scale),[24]; 125 g ai/ha,80
same,Barnyardgrass plant response rating (0-100),[25]; 31 g ai/ha,50
same,Barnyardgrass plant response rating (0 to 100 scale),[25]; 125 g ai/ha,100
same,"Foxtail, Green plant response rating (0-100)",[26]; 31 g ai/ha,0
same,"Foxtail, Green plant response rating (0 to 100 scale)",[26]; 125 g ai/ha,50
same,Corn plant response rating (0-100),[27]; 31 g ai/ha,10
same,Corn plant response rating (0 to 100 scale),[27]; 125 g ai/ha,90
same,"Oat, Wild plant response rating (0-100)",[28]; 31 g ai/ha,90
same,"Oat, Wild plant response rating (0 to 100 scale)",[28]; 125 g ai/ha,90
